This passage reports Activity results from ChEMBL document CHEMBL3046100, “Synthesis and anti-congestive heart failure activity of novel levosimendan analogues” (2011).

What all share (format): functional, Artery
Assay [1] relates to Rattus norvegicus. Kind of assay: Anticongestive heart failure activity in Rattus norvegicus (rat) assessed as blood pressure at 50 mg/kg, intraduodenal measured at 30 min by tracheal intubation method (reference value: 88 +/- 3 mmHg).
Assay [2] has as its system Rattus norvegicus. Put plainly: Anticongestive heart failure activity in Rattus norvegicus (rat) assessed as blood pressure at 50 mg/kg, intraduodenal measured at 20 min by tracheal intubation method (reference value: 81 +/- 4 mmHg).
In assay [3] the test system is Rattus norvegicus. Put plainly: Anticongestive heart failure activity in Rattus norvegicus (rat) assessed as blood pressure at 50 mg/kg, intraduodenal measured at 5 min by tracheal intubation method (reference value: 97 +/- 3 mmHg).
Assay [4] concerns Rattus norvegicus. Put plainly: Anticongestive heart failure activity in Rattus norvegicus (rat) assessed as blood pressure at 50 mg/kg, intraduodenal measured at 15 min by tracheal intubation method (reference value: 86 +/- 3 mmHg).
Assay [5] deals with Rattus norvegicus. Kind of assay: Anticongestive heart failure activity in Rattus norvegicus (rat) assessed as blood pressure at 50 mg/kg, intraduodenal measured at 10 min by tracheal intubation method (reference value: 95 +/- 3 mmHg).
For assay [6], the system named is Rattus norvegicus. Put plainly: Anticongestive heart failure activity in Rattus norvegicus (rat) assessed as blood pressure at 50 mg/kg, intraduodenal measured at 25 min by tracheal intubation method (reference value: 79 +/- 4 mmHg).

Consider `C[C@@H]1CC(=O)NN=C1c1ccc(/N=C/c2ccccn2)cc1`, for which the Activity in the assay on Rattus norvegicus [1] was found to be 29 mmHg; in the assay on Rattus norvegicus [2] it was 30 mmHg; with Rattus norvegicus [3] it was 52 mmHg; in the assay with Rattus norvegicus [4], 30 mmHg; with Rattus norvegicus [5] it was 39 mmHg; in the assay with Rattus norvegicus [6], 29 mmHg.

For `C[C@@H]1CC(=O)NN=C1c1ccc(/N=C/c2cccc([N+](=O)[O-])c2)cc1`, the Activity with Rattus norvegicus [1] amounted to 67 mmHg; in the assay on Rattus norvegicus [2] it was 68 mmHg; in the assay on Rattus norvegicus [3] it was 77 mmHg; in the assay on Rattus norvegicus [4], 69 mmHg; with Rattus norvegicus [5], 71 mmHg; with Rattus norvegicus [6], 67 mmHg.

Take `C[C@@H]1CC(=O)NN=C1c1ccc(/N=C/c2ccccc2O)cc1`: the Activity was found to be 26 mmHg with Rattus norvegicus [1]; 26 mmHg in the assay on Rattus norvegicus [2]; 55 mmHg in the assay on Rattus norvegicus [3]; 28 mmHg in the assay with Rattus norvegicus [4]; 28 mmHg with Rattus norvegicus [5]; 26 mmHg in the assay on Rattus norvegicus [6].

Regarding `C[C@@H]1CC(=O)NN=C1c1ccc(/N=C/c2ccc(O)c(O)c2)cc1`, the Activity in the assay with Rattus norvegicus [1] is reported as 53 mmHg; in the assay on Rattus norvegicus [2], 53 mmHg; in the assay on Rattus norvegicus [3] it was 77 mmHg; in the assay on Rattus norvegicus [4], 53 mmHg; with Rattus norvegicus [5], 63 mmHg; in the assay with Rattus norvegicus [6] it was 53 mmHg.

For `C[C@@H]1CC(=O)NN=C1c1ccc(NN=C(C#N)C#N)cc1` [LEVOSIMENDAN], the Activity in the assay with Rattus norvegicus [1] came to 31 mmHg; in the assay with Rattus norvegicus [2] it was 36 mmHg; in the assay with Rattus norvegicus [3], 51 mmHg; with Rattus norvegicus [4] it was 34 mmHg; in the assay with Rattus norvegicus [5], 39 mmHg; with Rattus norvegicus [6], 34 mmHg.

As for `C[C@@H]1CC(=O)NN=C1c1ccc(/N=C/c2ccccc2Cl)cc1`, the Activity in the assay with Rattus norvegicus [1] is on record as 32 mmHg; in the assay with Rattus norvegicus [2] it was 34 mmHg; in the assay with Rattus norvegicus [3] it was 81 mmHg; in the assay on Rattus norvegicus [4], 55 mmHg; in the assay on Rattus norvegicus [5], 68 mmHg; in the assay with Rattus norvegicus [6] it was 34 mmHg.

With `C[C@@H]1CC(=O)NN=C1c1ccc(/N=C/c2ccc(Cl)c(Cl)c2)cc1`, the Activity with Rattus norvegicus [1] turned out to be 25 mmHg; with Rattus norvegicus [2], 24 mmHg; with Rattus norvegicus [3], 52 mmHg; with Rattus norvegicus [4] it was 25 mmHg; in the assay on Rattus norvegicus [5], 33 mmHg; in the assay on Rattus norvegicus [6], 25 mmHg.

Turning to `C[C@@H]1CC(=O)NN=C1c1ccc(/N=C/c2ccc(O)cc2)cc1`, the Activity in the assay with Rattus norvegicus [1] was found to be 30 mmHg; in the assay with Rattus norvegicus [2] it was 30 mmHg; with Rattus norvegicus [3], 80 mmHg; in the assay on Rattus norvegicus [4], 32 mmHg; in the assay on Rattus norvegicus [5] it was 44 mmHg; with Rattus norvegicus [6] it was 29 mmHg.

`C[C@@H]1CC(=O)NN=C1c1ccc(/N=C/c2ccco2)cc1`: the Activity in the assay with Rattus norvegicus [1] came out at 24 mmHg; with Rattus norvegicus [2], 25 mmHg; in the assay with Rattus norvegicus [3] it was 45 mmHg; in the assay on Rattus norvegicus [4], 25 mmHg; with Rattus norvegicus [5] it was 30 mmHg; with Rattus norvegicus [6], 23 mmHg.

Consider `C[C@@H]1CC(=O)NN=C1c1ccc(/N=C/c2ccc([N+](=O)[O-])cc2)cc1`, for which the Activity in the assay on Rattus norvegicus [1] worked out at 29 mmHg; in the assay on Rattus norvegicus [2], 29 mmHg; with Rattus norvegicus [3], 56 mmHg; in the assay on Rattus norvegicus [4], 31 mmHg; with Rattus norvegicus [5], 35 mmHg; in the assay with Rattus norvegicus [6], 28 mmHg.

On to `COc1cc(/C=N/c2ccc(C3=NNC(=O)C[C@H]3C)cc2)cc(OC)c1OC`, for which the Activity is listed as 27 mmHg in the assay on Rattus norvegicus [1]; 28 mmHg with Rattus norvegicus [2]; 77 mmHg in the assay with Rattus norvegicus [3]; 37 mmHg in the assay on Rattus norvegicus [4]; 46 mmHg with Rattus norvegicus [5]; 27 mmHg with Rattus norvegicus [6].
